Active and inactive are the calls of the source. The rule behind the calls is not given here.
Assays:
[1] = Toxicity in human MNNG cell xenografted Balb/c mouse assessed as effect on lung at 15 to 45 mg/kg, iv administered every 2 days for 3 weeks and measured post last dose by H and E staining based microscopy; assay type: organism-based; conditions: in vivo, 504 h, dose 15-45 mg/kg, time 21 day
[2] = Cytotoxicity against HUVEC assessed as cell growth inhibition measured after 72 hrs by MTT assay; assay type: toxicity, cell-based; conditions: human, HUVEC cells
[3] = tested on: HOS-TE85; assay: Cell cycle arrest in human MNNG cells assessed as accumulation of cells at G2/M phase at 1 uM measured after 24 hrs by propidium iodide staining based flow cytometry (reference value: 39.4%); assay type: functional
[4] = tested on: HOS-TE85; assay: Induction of apoptosis in human MNNG cells assessed as late apoptotic cells at 1 uM measured after 48 hrs by Alexa Fluor 488 Annexin V/propidium iodide staining based flow cytometry (reference value: 0.51%); assay type: functional
[5] = tested on: HOS-TE85; assay: Induction of apoptosis in human MNNG cells assessed as early apoptotic cells at 10 uM measured after 48 hrs by Alexa Fluor 488 Annexin V/propidium iodide staining based flow cytometry (reference value: 0.69%); assay type: functional
[6] = Toxicity in human MNNG cell xenografted Balb/c mouse assessed as effect on liver at 15 to 45 mg/kg, iv administered every 2 days for 3 weeks and measured post last dose by H and E staining based microscopy; assay type: organism-based; conditions: in vivo, 504 h, dose 15-45 mg/kg, time 21 day
[7] = tested on: HOS-TE85; assay: Cytotoxicity against human MNNG cells assessed as cell growth inhibition at 10 uM measured after 72 hrs by MTT assay relative to control; assay type: functional; conditions: read-out: GI
[8] = tested on: HOS-TE85; assay: Induction of apoptosis in human MNNG cells assessed as viable cells at 10 uM measured after 48 hrs by Alexa Fluor 488 Annexin V/propidium iodide staining based flow cytometry (reference value: 98.8%); assay type: functional; conditions: read-out: Activity
[9] = tested on: HOS-TE85; assay: Cytotoxicity against human MNNG cells assessed as cell growth inhibition at 1 uM measured after 72 hrs by MTT assay relative to control; assay type: functional; conditions: read-out: GI
[10] = Selectivity index, ratio of IC50 for cytotoxicity against HUVEC to IC50 for cytotoxicity against human MNNG cells; assay type: toxicity, cell-based; conditions: HUVEC and human MNNG cells, read-out: Ratio IC50
[11] = tested on: HOS-TE85; assay: Antitumor activity against human MNNG cells xenografted in Balb/c mouse assessed as reduction in number of live cells in tumor at 15 to 45 mg/kg, iv administered every 2 days for 3 weeks and measured post last dose by H and E staining based microscopy; assay type: functional, organism-based; conditions: dose 15-45 mg/kg, time 21.0 day
[12] = tested on: HOS-TE85; assay: Cell cycle arrest in human MNNG cells assessed as accumulation of cells at S phase at 5 uM measured after 24 hrs by propidium iodide staining based flow cytometry (reference value: 39.4%); assay type: functional
[13] = tested on: HOS-TE85; assay: Induction of apoptosis in human MNNG cells assessed as viable cells at 2.5 uM measured after 48 hrs by Alexa Fluor 488 Annexin V/propidium iodide staining based flow cytometry (reference value: 98.8%); assay type: functional; conditions: read-out: Activity
[14] = Toxicity in human MNNG cell xenografted Balb/c mouse assessed as reduction in Cr level at 15 to 45 mg/kg, iv administered every 2 days for 3 weeks and measured post last dose; assay type: organism-based; conditions: in vivo, 504 h, dose 15-45 mg/kg, time 21 day
[15] = tested on: HOS-TE85; assay: Antitumor activity against human MNNG cells xenografted in Balb/c mouse assessed as tumor growth inhibition at 45 mg/kg, iv administered every 2 days for 3 weeks and measured daily during compound dosing relative to control; assay type: functional; conditions: HOS-TE85, 504 h, time 21 day, read-out: TGI
[16] = tested on: HOS-TE85; assay: Cell cycle arrest in human MNNG cells assessed as accumulation of cells at G0/G1 phase at 1 uM measured after 24 hrs by propidium iodide staining based flow cytometry (reference value: 51.4%); assay type: functional
[17] = tested on: HOS-TE85; assay: Antitumor activity against human MNNG cells xenografted in Balb/c mouse assessed as tumor growth inhibition at 30 mg/kg, iv administered every 2 days for 3 weeks and measured daily during compound dosing relative to control; assay type: functional; conditions: HOS-TE85, 504 h, time 21 day, read-out: TGI
[18] = tested on: HOS-TE85; assay: Induction of apoptosis in human MNNG cells assessed as necrotic cells at 2.5 uM measured after 48 hrs by Alexa Fluor 488 Annexin V/propidium iodide staining based flow cytometry (reference value: 0.04%); assay type: functional
[19] = tested on: HOS-TE85; assay: Cell cycle arrest in human MNNG cells assessed as accumulation of cells at G0/G1 phase at 5 uM measured after 24 hrs by propidium iodide staining based flow cytometry (reference value: 51.4%); assay type: functional
[20] = Toxicity in human MNNG cell xenografted Balb/c mouse assessed as effect on kidney at 15 to 45 mg/kg, iv administered every 2 days for 3 weeks and measured post last dose by H and E staining based microscopy; assay type: organism-based; conditions: in vivo, 504 h, dose 15-45 mg/kg, time 21 day
[21] = tested on: HOS-TE85; assay: Induction of apoptosis in human MNNG cells assessed as viable cells at 5 uM measured after 48 hrs by Alexa Fluor 488 Annexin V/propidium iodide staining based flow cytometry (reference value: 98.8%); assay type: functional; conditions: read-out: Activity
[22] = Toxicity in human MNNG cell xenografted Balb/c mouse assessed as effect on spleen at 15 to 45 mg/kg, iv administered every 2 days for 3 weeks and measured post last dose by H and E staining based microscopy; assay type: organism-based; conditions: in vivo, 504 h, dose 15-45 mg/kg, time 21 day
[23] = tested on: HOS-TE85; assay: Antitumor activity against iv dosed human MNNG cells xenografted in Balb/c mouse assessed as reduction in tumor cell proliferation administered every 2 days for 3 weeks and measured post last dose by Ki-67 staining based assay; assay type: functional, organism-based; conditions: dose 15-45 mg/kg, time 21.0 day
[24] = tested on: HOS-TE85; assay: Cell cycle arrest in human MNNG cells assessed as accumulation of cells at G0/G1 phase at 2.5 uM measured after 24 hrs by propidium iodide staining based flow cytometry (reference value: 51.4%); assay type: functional
[25] = tested on: HOS-TE85; assay: Antitumor activity against iv dosed human MNNG cells xenografted in Balb/c mouse assessed as increase in apoptotic cells administered every 2 days for 3 weeks and measured post last dose by TUNEL staining based assay; assay type: functional, organism-based; conditions: dose 15-45 mg/kg, time 21.0 day

## Cc1cc2c(cc1C)-c1oc(CN3CCOCC3)c(C)c1C(=O)C2=O
[1]
  Activity: Non-toxic
[2]
  IC50 at 72 h: 19 µM
[3]
  Activity: 9.2%
[4]
  Activity: 6.97%
[5]
  Activity: 23.1%
[6]
  Activity: Non-toxic
[7]
  inhibition of growth at 10 µM: 99.5%
[8]
  viability at 10 µM: 58.8%
[9]
  inhibition of growth at 1 µM: 38.2%
[10]
  selectivity ratio: 13.3
[11]
  Activity: Active
[12]
  Activity: 37.8%
[13]
  viability at 2.5 µM: 73.6%
[14]
  Activity: Toxic
[15]
  inhibition in vivo at 45 mg/kg: 73.6%
[16]
  Activity: 49.7%
[17]
  inhibition in vivo at 30 mg/kg: 63.4%
[18]
  Activity: 0.55%
[19]
  Activity: 55.9%
[20]
  Activity: Non-toxic
[21]
  viability at 5 µM: 69%
[22]
  Activity: Non-toxic
[23]
  Activity: Active
[24]
  Activity: 53%
[25]
  Activity: Dose-dependent-effect

Source: ChEMBL document CHEMBL6109124, “Identification of effective anti-osteosarcoma agents via screening of an in-house NQO1-targeted compound library” (Bioorg Med Chem, 2025)
